Literature values as cited in patent publication US8691290B2 (priority 2006, dated 2014).

Test system: polymorphonuclear leukocytes (PMN) cells
Conditions: S. aureus with various concentrations of PVP-I, 6 hours

**Q.** For polyvinylpyrolodone-iodine [PVP-I], which “TNF-α release from PMN cells” value is on record?
**A.** released increasing amounts of TNF-α as PVP-I is diluted
